US12421257B2, “Compositions and methods for inhibiting group II intron RNA” (YALE UNIVERSITY, priority 2018, dated 2025)
Converted amounts (≈) assume the structure as drawn.

Columns and labels:
ai5γ group II intron = assay: Radioanalytic self-splicing assay of SE RNA (Ki); type: biochemical, Saccharomyces cerevisiae; details: 8 mM MgCl2, 100 mM KCl, pH 7.5, 30° C.
How it was run: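 Internally labeled SE RNA (2 nM) self-spliced with varying inhibitor in 50 mM MOPS pH 7.5, 8 mM MgCl2, 100 mM KCl at 30° C; time points resolved on 5% denaturing PAGE. kobs from single-exponential fits, Ki from non-competitive model kobs=kmax/(1+[I]/Ki); mean±s.e.m. of 2–4 runs.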

[1] = tested on: COX1 aI5γ group II intron; assay: Group II intron splicing in S. cerevisiae by RT-qPCR; type: cell-based, Saccharomyces cerevisiae; details: qRT-PCR, four hours with compound
Procedure: A culture of S. cerevisiae was grown overnight with shaking in YPGE at 30° C. The saturated culture was then diluted and grown to mid-log phase in YPGE. Equal volumes of DMSO or compounds dissolved in DMSO were added to individual cultures (final concentrations of NED-2020: 64 μg/mL, APY-101: 32 μg/mL, APY-081: 32 μg/mL, APY-014: 64 μg/mL, Amphotericin B: 8 μg/mL), and incubated for four hours. Cells were harvested by centrifugation, washed with 500 μL ice-cold MilliQ water, centrifuged again, and snap-frozen in liquid nitrogen. Total RNA was isolated using E.Z.N.A. Yeast Purification Kit (Omega Bio-tek) according to manufacturer's procedures. The RNA was eluted in 50 μL of RNase/DNase-free water (ThermoFisher), followed by DNAse treatment with RQ1 DNase (Promega), for 1 hour at 37° C. Then it was mixed with 6 μl of 3M NaOAc and precipitated with 75% EtOH at −20° C. overnight. Then the RNA was reverse-transcribed with SuperScript III (ThermoFisher) following manufacturer's recommendations with 200 ng Random Hexamer Primers (ThermoFisher) and RNasin (ThermoFisher) in a 20 μl reaction. After reverse transcription, RNA was degraded by addition of 2N NaOH (2 μl) and incubation at 95° C. for 5 minutes. After cooling on ice for 5 minutes, 2 μl of 1M HCl and 2 μl of 3M NaOAc were added to the reaction mixture, and cDNA was precipitated with 75% EtOH at −20° C. for 30 minutes and resuspended in RNase/DNase-free water. The cDNA levels were quantified with real-time PCR using LightCycler 480 SYBR Green I (Roche) and a CFX384 Real-Time PCR Detection System (Bio-Rad) in triplicate. Relative levels of indicated RNA species from different conditions were normalized according to the ΔΔCT method via the following equation (Livak and Schmittgen, 2001, Methods, 25:402-408): ΔΔCT=[(CTCOX1total or unspliced−CTACT1or PGK1)test compound−(CTCOX1total or unspliced−CTACT1or PGK1)DMSO)].
The average and SEM of 2^-ΔΔCT is reported for each sample from three independent replicates. The following primer sets were used to amplify indicated targets: ACT1: […] (SEQ ID NO:1), […] (SEQ ID NO:2); PGK1: […] […]

C. parapsilosis = assay: MIC determination against C. parapsilosis; type: cell-based, Candida parapsilosis; details: Lodderomyces parapsilosis; RPMI-1640, 35° C. or 37° C., turbidity after 24 and 48 hours
How it was run: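 Broth microdilution in RPMI-1640 with C. parapsilosis at 0.5×10^3 to 2.5×10^3 CFU/mL; test compounds 0.25-128 μg/ml final, 1% DMSO. Plates incubated at 35° C or 37° C, turbidity read visually at 24 and 48 h. MIC = lowest concentration without visible growth; triplicates.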

[2] = tested on: S. cerevisiae wild-type (NP40-36a) and mtDNA intronless (XPM46) strains; assay: S. cerevisiae growth assay, wild-type vs mtDNA intronless strain; type: cell-based, Saccharomyces cerevisiae; details: YPGE medium, 64 or 128 μg/mL
Procedure: Cultures of S. cerevisiae (Wild-type: NP40-36a, mtDNA intronless: XPM46 (Perez-Martinez et al., 2003, EMBO J, 22:5951-5961) were grown overnight with shaking to mid-log phase in YPGE at 30° C. Equal numbers of cells were harvested and serially-diluted 1:5. Cells were then plated on YPD or YPGE media containing DMSO or Intronistat A dissolved in DMSO (final concentration: 64 or 128 μg/mL). Plates were grown for one day (YPD plates), two days (YPGE DMSO plate), or 18 days (YPGE 18 (Intronistat A) plate) at 30° C. Experiment was replicated twice to ensure reproducibility of growth phenotype.

**Q.** Which Ki (ai5γ group II intron) does the source give for O=C1/C(=C/c2cc(O)cc(O)c2)Oc2cc(O)cc(O)c21 [APY-014, (Z)-2-(3,5-Dihydroxybenzylidene)-4,6-dihydroxybenzofuran-3(2H)-one] here?
**A.** The Ki was 251 ± 31 µM.

**Q.** What about the “Splicing of COX1 aI5γ group II intron in S. cerevisiae in vivo (in words)” value (“Splicing of COX1 aI5γ group II intron” below) [1] of the same molecule?
**A.** The value was “inactive”.

**Q.** With Cc1ccncc1-c1ccc2oc(C(=O)c3cc(O)c(O)c(O)c3)cc2c1 [APY-081, 5-{[5-(4-Methylpyridin-3-yl)-1-benzofuran-2-yl]carbonyl}benzene-1,2,3-triol] as the molecule, how does the Ki (ai5γ group II intron) read?
**A.** Its Ki is 5.3 ± 0.2 µM.

**Q.** What about the “Splicing of COX1 aI5γ group II intron” value [1] of the same molecule?
**A.** The value was “inhibit splicing”.

**Q.** And the MIC (C. parapsilosis)?
**A.** Its MIC is 4 to 8 µg/mL (≈ 11.1 to 22.1 µM).

**Q.** O=C(c1cc(O)c(O)c(O)c1)c1cc2cc(-c3ccc(CO)cc3)ccc2o1 [APY-084, 5-({5-[4-(Hydroxymethyl)phenyl]-1-benzofuran-2-yl}carbonyl)benzene-1,2,3-triol] was tested. Which Ki (ai5γ group II intron) did it give?
**A.** Its Ki is 1.3 ± 0.4 µM.

**Q.** What about the MIC (C. parapsilosis) of the same molecule?
**A.** Its MIC is 2 to 4 µg/mL (≈ 5.31 to 10.6 µM).

**Q.** Which Ki (ai5γ group II intron) does the source give for Br.CCN(CC)Cc1ccc(-c2ccc3oc(C(=O)c4cc(O)c(O)c(O)c4)cc3c2)cc1 [APY-090, 5-[(5-{4-[(Diethylamino)methyl]phenyl}-1-benzofuran-2-yl)carbonyl]benzene-1,2,3-triol hydrobromide] here?
**A.** The Ki was 0.37 ± 0.04 µM.

**Q.** What about the MIC (C. parapsilosis) of the same molecule?
**A.** Its MIC is 4 to 8 µg/mL.

**Q.** CCCCNS(=O)(=O)c1ccc(-c2ccc(-c3nc(-c4cc(O)c(O)c(O)c4)cs3)cc2)cc1 [APY-093, N-Butyl-4-{4-[4-(3,4,5-trihydroxyphenyl)-1,3-thiazol-2-yl]phenyl}benzene-1-sulfonamide] was tested. Which Ki (ai5γ group II intron) did it give?
**A.** The Ki was 53 ± 5 µM.

**Q.** And the MIC (C. parapsilosis)?
**A.** The MIC was 32 to 64 µg/mL (≈ 64.4 to 129 µM).

**Q.** For CC(=O)c1ccc(-c2ccc3oc(C(=O)c4cc(O)c(O)c(O)c4)cc3c2)cc1 [APY-101, 1-(4-{2-[(3,4,5-Trihydroxyphenyl)carbonyl]-1-benzofuran-5-yl}phenyl)ethan-1-one], which “Growth of intronless vs wild-type strain in presence of compound (in words)” value [2] is on record?
**A.** Its value is “intronless strain is much more resistant”.

**Q.** And the Ki (ai5γ group II intron)?
**A.** Its Ki is 2.1 ± 0.2 µM.

**Q.** What about the “Splicing of COX1 aI5γ group II intron” value [1] of the same molecule?
**A.** Its value is “inhibit splicing”.

**Q.** What about the MIC (C. parapsilosis) of the same molecule?
**A.** The MIC was 2 to 4 µg/mL (≈ 5.15 to 10.3 µM).
